In patent US11358936B2, “Lysyl oxidase-like 2 inhibitors and uses thereof” (PharmAkea, Inc., priority 2015, dated 2022):
Structures can show the parent of a compound that is named as a salt.

target: human LOXL2 (Homo sapiens (Human), UniProt Q9Y4K0); assay: Human LOXL2 Amine Oxidase Activity Assay (Amplex Red fluorescence); type: biochemical; conditions: IC50, concentrated conditioned media from CHO cells stably expressing human LOXL2; 2 h at 37° C. preincubation; DAP substrate
Experimental: LOXL2 amine oxidase activity is evaluated by measuring Amplex Red fluorescence using 10-20× concentrated conditioned media from CHO cells stably expressing human LOXL2. To assay for amine oxidase activity, 10 μL of the concentrated conditioned media is incubated with 2 μL of test compound in DMSO and 73 μL Assay Buffer (50 mM Borate Buffer, pH8) for 2 h at 37° C. After the 2 h incubation, 5 μl of 10 mM 1,5-Diaminopentane (DAP) diluted in Assay Buffer and 10 μl of Amplex Red Mix (8.5 μl Assay Buffer+0.5 μl of 10 mM Amplex Red+1 μl of 500 U/ml Horseradish Peroxidase) are added and the plate mixed and immediately placed on the FlexStaion for fluorescence measurements. Fluorescence is read in kinetic mode every 2 min for 1 hour at excitation=544 and emission=590. The amine oxidase activity is calculated from the slope of the linear portion of the curve.

Chain of human LOXL2 (Q9Y4K0 26-774): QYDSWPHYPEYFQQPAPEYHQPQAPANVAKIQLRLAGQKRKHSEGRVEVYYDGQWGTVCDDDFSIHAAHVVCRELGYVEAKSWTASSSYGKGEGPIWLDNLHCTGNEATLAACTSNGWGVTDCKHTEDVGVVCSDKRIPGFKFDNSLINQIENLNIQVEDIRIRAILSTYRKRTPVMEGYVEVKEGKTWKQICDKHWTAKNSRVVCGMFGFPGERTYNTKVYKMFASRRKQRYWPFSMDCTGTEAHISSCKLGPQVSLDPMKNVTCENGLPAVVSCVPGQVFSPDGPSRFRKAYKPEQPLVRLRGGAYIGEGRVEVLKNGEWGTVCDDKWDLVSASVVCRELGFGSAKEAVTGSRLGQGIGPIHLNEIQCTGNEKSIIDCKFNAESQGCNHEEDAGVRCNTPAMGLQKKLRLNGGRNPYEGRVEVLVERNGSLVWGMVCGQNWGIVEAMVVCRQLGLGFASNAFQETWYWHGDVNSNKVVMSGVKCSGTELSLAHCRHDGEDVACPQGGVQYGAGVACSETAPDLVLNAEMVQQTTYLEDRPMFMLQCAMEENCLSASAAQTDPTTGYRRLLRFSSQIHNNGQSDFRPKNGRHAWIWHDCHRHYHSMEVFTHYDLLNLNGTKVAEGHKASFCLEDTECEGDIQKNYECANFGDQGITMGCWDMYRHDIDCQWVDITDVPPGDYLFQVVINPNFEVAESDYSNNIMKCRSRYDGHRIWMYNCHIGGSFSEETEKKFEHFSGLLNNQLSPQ

SMILES | IC50
NCc1ccnc(NC(=O)CC(F)(F)F)c1 [Compound 4-14, trifluoroacetate] | 300 to 1000 nM

same assay, conditions: concentrated conditioned media from CHO cells stably expressing human LOXL2; 2 h at 37° C. preincubation; DAP substrate; read-out: IC50

IC50 | SMILES
< 300 nM | NCc1ccnc(Oc2cccc(C(=O)Nc3cccc(C(=O)O)c3)c2)c1 [Compound 1-28, 3-(3-((4-(Aminomethyl)pyridin-2-yl)oxy)benzamido)benzoic acid hydrochloride]
< 300 nM | NCc1ccnc(-c2cccnc2)c1 [Compound 2-3, [2,3′-Bipyridin]-4-ylmethanamine]
< 300 nM | Cc1ccc(Cl)cc1NC(=O)c1cccc(-c2cc(CN)ccn2)c1 [Compound 1-9, 3-(4-(Aminomethyl)pyridin-2-yl)-N-(5-chloro-2-methylphenyl)benzamide hydrochloride]
< 300 nM | NCc1ccnc(-c2cccc(C(=O)Nc3ccccc3)c2)c1 [Compound 1-7, 3-(4-(Aminomethyl)pyridin-2-yl)-N-phenylbenzamide hydrochloride]
< 300 nM | NCc1ccnc(OCc2cccc(C(=O)Nc3ccccc3)c2)c1 [Compound 1-45, 3-(((4-(Aminomethyl)pyridin-2-yl)oxy)methyl)-N-phenylbenzamide hydrochloride]
< 300 nM | NCc1ccnc(-c2cccc(C(=O)N3CCC(O)(C(F)(F)F)C3)c2)c1 (racemic) [Compound 1-6, Racemic-(3-(4-(aminomethyl)pyridin-2-yl)phenyl)(3-hydroxy-3-(trifluoromethyl)pyrrolidin-1-yl)methanone hydrochloride]
< 300 nM | NCc1ccnc(Oc2cccc3c2c(Br)cn3CCc2ccc(F)cc2)c1 [Compound 2-23, (2-((3-Bromo-1-(4-fluorophenethyl)-1H-indol-4-yl)oxy)pyridin-4-yl)methanamine hydrochloride]
300 to 1000 nM | NCc1ccnc(-c2cccc(C(=O)O)c2)c1 [Compound 2-5, hydrochloride]
< 300 nM | NCc1ccnc(Oc2cccc(C(=O)N[C@@H](CO)c3ccccc3)c2)c1 [Compound 1-36, (R)-3-((4-Aminomethyl)pyridin-2-yl)oxy)-N-(2-hydroxy-1-phenylethyl)benzamide hydrochloride]
< 300 nM | COc1cccc(NC(=O)c2cccc(Oc3cc(CN)ccn3)c2)c1 [Compound 1-19, 3-((4-(Aminomethyl)pyridin-2-yl)oxy)-N-(3-methoxyphenyl)benzamide hydrochloride]
< 300 nM | COCCNC(=O)c1ccc(-c2cc(CN)ccn2)cc1 [Compound 1-1, 4-(4-(Aminomethyl)pyridin-2-yl)-N-(2-methoxyethyl)benzamide hydrochloride]
< 300 nM | COc1ccc(Cn2c(C)cc3c(Oc4cc(CN)ccn4)cccc32)cn1 [Compound 2-13, (2-((1-((6-Methoxypyridin-3-yl)methyl)-2-methyl-1H-indol-4-yl)oxy)pyridin-4-yl)methanamine trifluoroacetate]
> 1000 nM | NCc1ccnc(N2C[C@@H](O)[C@H](F)C2)c1 (racemic) [Compound 2-1]
< 300 nM | COC(=O)c1ccc(NC(=O)c2cccc(Oc3cc(CN)ccn3)c2)cc1 [Compound 1-26, Methyl 4-(3-((4-(amindimethyl)pyridin-2-yl)oxy)benzamido)benzoate hydrochloride]
< 300 nM | NCc1ccnc(Oc2cccc3c2ccn3CCc2ccc(F)cc2)c1 [Compound 2-22, (2-((1-(4-Fluorophenethyl)-1H-indol-4-yl)oxy)pyridin-4-yl)methanamine hydrochloride]
< 300 nM | NCc1ccnc(Oc2cccc3c2ccn3C(=O)Nc2ccccc2)c1 [Compound 2-25, 4-((4-(Aminomethyl)pyridin-2-yl)oxy)-N-phenyl-1H-indole-1-carboxamide hydrochloride]
< 300 nM | NCc1ccnc(Oc2cccc3c2CCC(=O)N3Cc2ccc(F)cc2F)c1 [Compound 2-36, 5-((4-(Aminomethyl)pyridin-2-yl)oxy)-1-(2,4-difluorobenzyl)-3,4-dihydroquinolin-2(1H)-one hydrochloride]
< 300 nM | NCc1ccnc(-c2ccc(C(=O)N3CCC(O)(C(F)(F)F)C3)cc2)c1 (racemic) [Compound 1-2, Racemic-(4-(4-(aminomethyl)pyridin-2-yl)phenyl)(3-hydroxy-3-(trifluoromethyl)pyrrolidin-1-yl)methanone hydrochloride]
< 300 nM | NCc1ccnc(Oc2cccc3c2ccn3C(=O)c2ccccc2)c1 [Compound 2-24, (4-((4-(Aminomethyl)pyridin-2-yl)oxy)-1H-indol-1-yl)(phenyl)methanone hydrochloride]
300 to 1000 nM | NCc1ccnc(F)c1 [Compound 4-3, 2-Fluoro-4-(aminomethyl)pyridine]

IC50 | SMILES
< 300 nM | N=C(N)c1cccc(CNC(=O)c2cccc(Oc3cc(CN)ccn3)c2)c1 [Compound 1-39, 3-((4-(Aminomethyl)pyridin-2-yl)oxy)-N-(3-carbamimidoylbenzyl)benzamide dihydrochloride]
< 300 nM | NCc1ccnc(-c2ccc(C(=O)Nc3ccccc3)cc2)c1 [Compound 1-3, 4-(4-(Aminomethyl)pyridin-2-yl)-N-phenylbenzamide hydrochloride]
300 to 1000 nM | NCc1ccnc(Oc2cccc3c2ccn3CC(=O)N2CCCC(O)(C(F)(F)F)C2)c1 (single isomer, unassigned) [Compound 2-29, (R) or (S)-2-(4-((4-(aminomethyl)pyridin-2-yl)oxy)-1H-indol-1-yl)-1-(3-hydroxy-3-(trifluoromethyl)piperidin-1-yl)ethan-1-one hydrochloride]
< 300 nM | NCc1ccnc(Oc2cccc(C(=O)Nc3ccccc3)c2)c1 [Compound 1-17, 3-((4-(Aminomethyl)pyridin-2-yl)oxy)-N-phenylbenzamide hydrochloride]
< 300 nM | NCc1ccnc(Oc2cccc(C(=O)NCc3ccc(-n4ccnc4)c(F)c3)c2)c1 [Compound 1-37, 3-((4-(Aminomethyl)pyridin-2-yl)oxy)-N-(3-fluoro-4-(1H-imidazol-1-yl)benzyl)benzamide dihydrochloride]
< 300 nM | NCc1ccnc(Oc2cccc3c2ccn3Cc2ccc(F)cn2)c1 [Compound 2-15, (2-((1-((5-Fluoropyridin-2-yl)methyl)-1H-indol-4-yl)oxy)pyridin-4-yl) methanamine hydrochloride]
< 300 nM | COc1ccc(Cn2cc(C)c3c(Oc4cc(CN)ccn4)cccc32)cn1 [Compound 2-14, (2-((1-((6-Methoxypyridin-3-yl)methyl)-3-methyl-1H-indol-4-yl)oxy)pyridin-4-yl)methanamine trifluoroacetate]
< 300 nM | NCc1ccnc(Oc2cccc(C(=O)NCc3ccccc3)c2)c1 [Compound 1-18, 3-((4-Aminomethyl)pyridin-2-yl)oxy)-N-benzylbenzamide hydrochloride]
< 300 nM | COCCNC(=O)c1cccc(Oc2cc(CN)ccn2)c1 [Compound 1-15, 3-((4-(Aminomethyl)pyridin-2-yl)oxy)-N-(2-methoxyethyl)benzamide hydrochloride]
< 300 nM | COCCNC(=O)c1cccc(-c2cc(CN)ccn2)c1 [Compound 1-5, 3-(4-(Aminomethyl)pyridin-2-yl)-N-(2-methoxyethyl)benzamide hydrochloride]
< 300 nM | CCCCCCCCCCCCCNC(=O)c1cccc(Oc2cc(CN)ccn2)c1 [Compound 1-44, 3-((4-(Aminomethyl)pyridin-2-yl)oxy)-N-tridecylbenzamide hydrochloride]
< 300 nM | NCc1ccnc(Oc2cccc(C(=O)NCc3cnccn3)c2)c1 [Compound 1-43, 3-((4-(Aminomethyl)pyridin-2-yl)oxy)-N-(pyrazin-2-ylmethyl)benzamide hydrochloride]
< 300 nM | COc1ccc(CN2C(=O)CCc3c(Oc4cc(CN)ccn4)cccc32)cn1 [Compound 2-37, 5-((4-(Aminomethyl)pyridin-2-yl)oxy)-1-((6-methoxypyridin-3-yl)methyl)-3,4-dihydroquinolin-2(1H)-one acetate]
< 300 nM | NCc1ccnc(Oc2cccc(C(=O)N3CCc4ccccc4C3)c2)c1 [Compound 1-41, (3-((4-(Aminomethyl)pyridin-2-yl)oxy)phenyl)(3,4-dihydroisoquinolin-2(1H)-yl)methanone trifluoroacetate]
< 300 nM | Cc1nn(Cc2ccc(F)cc2F)c2cccc(Oc3cc(CN)ccn3)c12 [Compound 2-35, (2-((1-(2,4-Difluorobenzyl)-3-methyl-1H-indazol-4-yl)oxy)pyridin-4-yl)methanamine trifluoroacetate]
< 300 nM | NCc1ccnc(Oc2cccc(C(=O)N3CCC(O)(C(F)(F)F)C3)c2)c1 (racemic) [Compound 1-16, Racemic-(3-((4-(aminomethyl)pyridin-2-yl)oxy)phenyl)(3-hydroxy-3-(trifluoromethyl)pyrrolidin-1-yl)methanone hydrochloride]
> 1000 nM | NCc1ccnc(N2CCC(O)(C(F)(F)F)C2)c1 (racemic) [Compound 2-2, Racemic-1-(4-(Aminomethyl)pyridin-2-yl)-3-(trifluoromethyl)pyrrolidin-3-ol]
< 300 nM | NCc1ccnc(-c2ccc(F)cc2)c1 [Compound 2-4, (2-(4-Fluorophenyl)pyridin-4-yl)methanamine]
< 300 nM | NCc1ccnc(-c2cccc(C(=O)Nc3cc(Cl)cc4[nH]ccc34)c2)c1 [Compound 1-10, 3-(4-(Aminomethyl)pyridin-2-yl)-N-(6-chloro-1H-indol-4-yl)benzamide hydrochloride]

SMILES | IC50
NCc1ccnc(N2CCCC2)c1 [Compound 4-10, 2-(1-Pyrrolidino)-4-(aminomethyl)pyridine] | > 1000 nM
NCc1cccnc1F [Compound 4-1, 2-Fluoro-3-(aminomethyl)pyridine] | > 1000 nM
